# Reference: patent US20150231093A1, “METHODS AND COMPOSITIONS FOR COUNTERMEASURES AGAINST RADIATION” (THE UNIVERSITY OF CHICAGO, priority 2014, published 2015)
# Experiments:
# [1] = Tolerability of the i.p. doses used in mice
# Experimental: For in vivo studies, mice were injected i.p. with a final volume of 0.2 ml for all single and drug combinations used. […] Captopril was injected at a final concentration of 200 mg/kg body weight, MESNA was injected at a final concentration of 300 mg/kg body weight, and NAC was injected at a concentration of 400 mg/kg body weight.
# mouse splenocytes = conditions: i.p. 24 h following 7 Gy; amifostine 400 mg/kg, metformin 250 mg/kg
# [2] = 250 mg/kg i.p. 24 h following 7 Gy, counted 13 days after irradiation
# [3] = test system: mouse embryo fibroblasts (MEF); assay: In vitro cell survival (colony) assay after 4 Gy, MEF; type: cell-based; conditions: 4 mM, 30 min prior to 4 Gy
# Description: (§1) In Vitro Cell Survival Assay. […] Unirradiated cells served as controls. Immediately following irradiation, cells were counted, diluted, and known numbers seeded into 100-mm tissue culture dishes to allow the development of 50 to 150 colonies per dish. Colonies were stained with 20% crystal violet and scored 12 days after plating.
# [4] = test system: human microvascular endothelial cells (HMEC); assay: In vitro cell survival (colony) assay after 4 Gy, HMEC; type: cell-based; conditions: 4 mM, 30 min prior to 4 Gy
# Description: as §1
# [5] = test system: SA-NH murine sarcoma cells; assay: In vitro cell survival (colony) assay after 4 Gy, SA-NH cells; type: cell-based; conditions: 4 mM, 30 min prior to 4 Gy
# Description: as §1
smiles,measurement,setting,value
"C[C@H](CS)C(=O)N1CCC[C@H]1C(=O)O [Captopril, captopril]",toxicity of dose used,[1]; 200 mg/kg body weight,non-toxic
"O=S(=O)([O-])CCS.[Na+] [MESNA, sodium 2-sulfanylethanesulfonate]",toxicity of dose used,[1]; 300 mg/kg body weight,non-toxic
"CN(C)C(=N)NC(=N)N.Cl [Metformin, 1,1-Dimethylbiguanide hydrochloride]",protection of irradiated animals (in words),mouse splenocytes,significantly protected
same,average number of spleen nodules,[2],18
"CC(=O)N[C@@H](CS)C(=O)O [NAC, N-acetyl-cysteine]",toxicity of dose used,[1]; 400 mg/kg body weight,non-toxic
"NCCCNCCS [WR1065, 2-[(aminopropyl)amino] ethanethiol]",protection ratio,[3],1.9
same,protection ratio,[4],1.8
same,protection ratio,[5],1.6
